From patent US10780072B2, “Methods for inhibiting conversion of choline to trimethylamine (TMA)” (The Procter & Gamble Company, priority 2015, dated 2020)

Test system: Proteus mirabilis 29906 (Pm) lysate
Assay: Inhibition of TMA formation from choline (d9-choline to d9-TMA) in Proteus mirabilis lysate, LC-MS/MS
Format: biochemical
Settings: Pm lysate 1.5 mg/mL protein, 50 μM d9-choline chloride, 37° C. for two hours; read-out: TMA Inhibition (IC50, mol/L)

Compound	IC50 [µM]
COc1ccc(C)cc1N=C=S [Compound 1, 2-Methoxy-5-methylphenyl isothiocyanate]	745
CC(C)(C)N=C=S [Compound 2, tert-Butyl isothiocyanate]	5480
Cc1cccc(N=C=S)c1 [Compound 3, m-Tolyl isothiocyanate]	248
CSc1ccc(N=C=S)cc1 [Compound 4, 4-(Methylthio) phenyl isothiocyanate]	73.4
S=C=NCc1ccccc1 [Compound 5, Benzyl isothiocyanate]	3.03
CCCCCN=C=S [Compound 6, 1-pentyl isothiocyanate]	41.4
CCN(CC)CCCN=C=S [Compound 7, 3-(Diethyl-amino) propyl isothiocyanate]	1.56
S=C=NCC1CCCCC1 [Compound 8, Cyclohexyl- methyl isothiocyanate]	210
S=C=NCCc1ccc(Cl)cc1 [Compound 9, 2-(4-Chloro-phenethyl) isothiocyanate]	30
CCC(C)N=C=S (stereo not drawn) [Compound 10, sec-butyl isothiocyanate]	129
CC(C)CN=C=S [Compound 12, Isobutyl isothiocyanate]	74.5
CCCCN=C=S [Compound 13, Butyl isothiocyanate]	50.4
CC(C)N=C=S [Compound 15, Isopropyl isothiocyanat]	98.2
CC(C)CCN=C=S [Compound 16, 1-isothio-cyanato-3-methyl-butane]	66.1
S=C=Nc1ccccc1 [Compound 18, Phenyl isothiocyanate]	120
S=C=Nc1cccc2ccccc12 [Compound 19, 1-Naphthyl isothiocyanate]	2080
S=C=Nc1ccc(Br)cc1 [Compound 20, 4-Bromo-phenyl isothiocyanate]	88.8
O=C(N=C=S)c1ccccc1 [Compound 21, Benzoyl isothiocyanate]	196
CC(C)(C)OC(=O)NCCCCN=C=S [Compound 22, N-Boc-4-isothio-cyanatobutyl-amine]	65.2
CC(C)(C)OC(=O)Nc1ccc(N=C=S)cc1 [Compound 23, N-Boc-4-isothio-cyanatoaniline]	2530
S=C=NCCCN1CCOCC1 [Compound 24, 3-(4-Morpholino) propyl isothiocyanate]	15.7

Compound	IC50 [µM]
S=C=NCCN1CCOCC1 [Compound 25, 2-(4-Morpholino) ethyl isothiocyanate]	13.4
C[C@H](N=C=S)c1ccccc1 [Compound 26, (S)-(+)-alpha- Methylbenzyl isothiocyanate]	20.9
S=C=Nc1ccc(Cl)cc1 [Compound 27, 4-Chloro-phenyl isothiocyanate]	108
S=C=NC1CC2CCC1C2 (stereo not drawn) [Compound 29, exo-2-Norbornyl-isothiocyanate]	48.2
S=C=NC1CCCCC1 [Compound 30, Cyclohexyl isothiocyanate]	56.1
CCc1ccc(N=C=S)cc1 [Compound 31, 4-Ethylphenyl isothiocyanate]	383
COc1ccccc1N=C=S [Compound 32, 2-Methoxy-phenyl isothiocyanate]	188
COc1ccc(OC)c(N=C=S)c1 [Compound 33, 2,5-Di-methoxy-phenyl isothiocyanate]	152
COc1cccc(N=C=S)c1 [Compound 34, 3-Methoxy-phenyl isothiocyanate]	88.3
S=C=NCCN1CCCCC1 [Compound 35, 2-Piperidino-ethyl isothiocyanate]	14.3
CCOC(=O)CN=C=S [Compound 36, Ethyl isothio- cyanato- acetate]	3.98
CCCCCC12CCC(C(=O)Oc3ccc(N=C=S)cc3)(CC1)CC2 [Compound 37, 4-Isothio-cyanato-phenyl 4-pentyl-bicyclo [2.2.2] octane-1-carboxylate]	48900
S=C=NC(c1ccccc1)c1ccccc1 [Compound 38, Benzhydryl isothiocyanate]	1560
CC(=O)O[C@H]1[C@H](OC(C)=O)[C@@H](N=C=S)OC[C@H]1OC(C)=O [Compound 39, 2,3,4-Tri-O-acetyl-α-D-arabino-pyranosyl isothiocyanate]	220
CCN(CC)CCN=C=S [Compound 40, Ethanamine, N,N-diethyl-2-isothio-cyanato]	8.81
CN(C)CCCN=C=S [Compound 41, 3-isothio-cyanato-N,N-dimethyl-1-Propanamine]	11.5
CN(C)CCN=C=S [Compound 42, 2-Isothio-cyanato-N,N-dimethyl-ethanamine]	7.67
CCC(C)CN=C=S (stereo not drawn) [Compound 44, Butane, 1-isothio-cyanato-2-methyl-]	105
C[N+](C)(C)CCN=C=S [Compound 45, 2-Isothio-cyanato-N,N,N-trimethyl-ethana-minium iodide]	1.28
Ethyl isothiocyanate [Compound 11]	28.6
Methyl isothiocyanate [Compound 14]	20
